Laboratory results reported in patent US6372726B1, “Methods of cancer treatment using NAALADase inhibitors” (Guilford Pharmaceuticals Inc., priority 1996, dated 2002).
Like-named read-outs stand apart in the source and are kept apart here. Blank lines part the entries; values can stand above or below the compound they belong to.

Columns and labels:
NAALADase = NAALADase (UniProt P70627); test: In vitro assay of NAALADase activity ([3H]Glu liberated from [3H]NAAG, synaptosomal protein); type: biochemical; conditions: for NAALADase inhibiting activity (in words): comparison of Table III(a) compounds
Experimental: The following compounds were tested for in vitro inhibition of NAALADase activity.
Substrate and product were resolved by anion-exchange liquid chromatography. […] Quisqualate (100 μM) was included in parallel assay tubes to confirm the specificity of the measurements.

[1] = test system: R3327 rat prostate tumors (Dunning R3327-G prostate cancer cells); test: In vivo rat Dunning R3327 model
Experimental: Referring now to FIGS. 5 and 6, Dunning R3327-G prostate cancer cells were injected subcutaneously into both flanks of syngeneic male rats. […] In the second study, the anti-tumor growth activity of 2-[[phenylmethyl)hydroxyphosphinyl]methyl]pentanedioic acid was tested following daily intra-tumoral injections of the drug (0.1,1,10,100 μg) after the tumor reached an initial volume of 80-290 mm^3. Tumor volumes were subsequently monitored for 42 days after the beginning of drug treatment.
R3327-G is a cell line derived from an androgen-sensitive papillary adenocarcinoma derived from a spontaneously forming tumor in the rat prostate. […]
(§1) After the animals were released from quarantine, the rats were injected subcutaneously in both flanks with 1×10^7 R3327-G cells (0.1-ml injection volume). Tumor dimensions and body weight were measured twice weekly. Vernier calipers were used to measure tumors in three planes, and tumor volume (V) was calculated as follows: V=π(x×y×z)/6, where x, y, and z were the tumor measurements minus skin thickness. […]
(§2) The tumors were measured twice weekly. The mean tumor volume for each group was calculated for each time point. Comparisons between groups at specific times were made using an unpaired, two-tailed t-test, and the results were analyzed using analyzed of variance (ANOVA). […]

[2] = test system: LNCAP cells (a prostate cancer cell line); test: In vitro cancer assay: 3H-thymidine incorporation in LNCAP cells; type: cell-based, human; conditions: for 3H-Thymidine Incorporation (dpm/well): LNCAP cells, 7 days
Experimental: On the 7th day, the cells are pulsed with 3H-thymidine for 4 hours, harvested and measured for radioactivity. Values represent means +/−SEM of 6 separate cell wells for each treatment. All experiments are performed at least twice.
Cells are grown in RPMI-1640 media supplemented with 10% heat-inactivated fetal calf serum, 2 mM-glutamine, 100 units/ml penicillin, and 100 μg/ml streptomycin (Paragon) in a humidified incubator at 37° C. in a 5% CO2/95% O2 atmosphere.
The cells are suspended at 1×10^3 cells/ml in RPMI-1640 media and seeded into 24-well plates at 500 μl per well. […] On days 3, 5 and 7, media and drug are refreshed. On the 8th day following seeding, each well is pulsed with 1 μCi ^3H-thymidine (New England Nuclear) for 4 hours. Media is then removed and the wells washed 2 times with phosphate buffered saline (pH=7.4). […] 5 ml UltimaGold (Packard) scintillation cocktail is added and radioactivity is quantitated using a Beckman LS6001 scintillation counter.

mice = test: In vivo toxicity of NAALADase inhibitors in mice; conditions: doses of 1 to 500 mg/kg, observed 5 consecutive days
Excerpt: The mice were subsequently observed two times per day for 5 consecutive days.

[3] = test system: LNCAP human prostate tumors; test: In vivo LNCaP tumor xenograft assay; design: species or system mice; conditions: daily intratumoral injection (0.25 μg/day), six weeks, p=0.04
Experimental: Referring now to FIGS. 3 and 4, LNCaP human prostate cancer cells were injected subcutaneously into the right flank of male nude mice. […] The 2-(phosphonomethyl)pentanedioic acid polymer was changed two times per week. Tumor volumes were monitored for 42 days after the beginning of treatment.
LNCaP is a human prostate cancer cell line that was established in 1973 from a […] of a patient who had been treated with 5-FU, doxorubicin, methotrexate, and CTX in the 3 months before the cell line was initiated. This line is androgen receptor positive and has been used in screening anticancer drugs that are targeted as hormone antagonists. […]
as §1, with “mice” for “rats”, “the right flank” for “both flanks”, “LNCaP” for “R3327-G”, “cells in Matrigel™” for “cells”, “volume)” for “volume).”
as §2, with “The tumor” for “The tumors”, “twice weekly for at least 8 weeks after the first treatment.” for “twice weekly.”, “using analysis” for “using analyzed”

[4] = Table III(c), read-out: Ki Value

Ki (NAALADase; Table III(b), read-out: Ki): 148 nM
SMILES: CCCCP(=O)(O)CC(CCC(=O)O)C(=O)O (stereo not shown)

Ki (NAALADase; Table III(b), read-out: Ki): 190 nM
SMILES: Cc1cccc(P(=O)(O)CC(CCC(=O)O)C(=O)O)c1 (stereo not shown)

Ki (NAALADase; [4]): 175 nM
SMILES: O=C(O)CCC(CP(=O)(O)Cc1ccccc1F)C(=O)O (stereo not shown)

Ki (NAALADase; [4]): 38 nM
SMILES: O=C(O)CCC(CP(=O)(O)Cc1c(F)c(F)c(F)c(F)c1F)C(=O)O (stereo not shown)

SMILES: O=C(O)CCC(CP(=O)(O)O)C(=O)O (stereo not shown) [2-(phosphonomethyl)pentanedioic acid]
Ki (NAALADase; Table III(a)): 0.275 ± 0.08 nM
NAALADase inhibiting activity (in words) (NAALADase): high level of NAALADase inhibiting activity
Ki (NAALADase; text restating Table III(a)): 0.27 nM
Potency relative to previously described inhibitors (NAALADase; times more potent): > 1000 times
Tumor growth, FIG. 5 ([1]; daily subcutaneous injections 1, 3, 10 and 30 mg/kg, 84 days): tumor growth slowed
LNCAP cell proliferation (incorporation of [3H]thymidine), FIG. 2 ([2]; 7-day treatment, 100 pM to 10 nM): sharp dose-dependent decrease
3H-Thymidine Incorporation (dpm/well) ([2]; 10 pM): 3078 ± 1006 dpm/well
3H-Thymidine Incorporation (dpm/well) ([2]; 100 pM): 2062 ± 595 dpm/well
3H-Thymidine Incorporation (dpm/well) ([2]; 1 nM): 1001 ± 52 dpm/well
3H-Thymidine Incorporation (dpm/well) ([2]; 10 nM): 664 ± 366 dpm/well
Toxicological effect in mice (in words) (mice): non-toxic
Mean tumor volume versus control group, FIG. 3 [3]: statistically significant difference

SMILES: O=C(O)CC(CP(=O)(O)O)C(=O)O (stereo not shown) [2-(phosphonomethyl)succinic acid, reference compound]
NAALADase inhibiting activity (in words) (NAALADase): much lower NAALADase inhibiting activity

SMILES: O=C(O)CCC(CP(=O)(O)Cc1ccccc1)C(=O)O (stereo not shown) [2-[(benzylhydroxyphosphinyl)methyl]pentanedioic acid]
Mean tumor volume relative to start of treatment (V/Vo) versus control group, FIG. 6 ([1]; daily intra-tumoral injections of 1 μg, 2.5 weeks, p=0.02): statistically significant difference

NAALADase inhibiting activity (in words) (NAALADase): lower NAALADase inhibiting activity
SMILES: O=C(O)CCC(CP(=O)(O)CCC(=O)O)C(=O)O (stereo not shown) [2-[[2-carboxyethyl)hydroxyphosphinyl]-methyl]pentanedioic acid)]
